Assay results published in ChEMBL document CHEMBL5291721, “A preclinical secondary pharmacology resource illuminates target-adverse drug reaction associations of marketed drugs” (Nat Commun, 2023).

What was measured:
[1] = target: T1, Alpha-1A adrenergic receptor (Homo sapiens, UniProt P35348); format: functional, cell-based
T1 sequence (P35348 whole entry): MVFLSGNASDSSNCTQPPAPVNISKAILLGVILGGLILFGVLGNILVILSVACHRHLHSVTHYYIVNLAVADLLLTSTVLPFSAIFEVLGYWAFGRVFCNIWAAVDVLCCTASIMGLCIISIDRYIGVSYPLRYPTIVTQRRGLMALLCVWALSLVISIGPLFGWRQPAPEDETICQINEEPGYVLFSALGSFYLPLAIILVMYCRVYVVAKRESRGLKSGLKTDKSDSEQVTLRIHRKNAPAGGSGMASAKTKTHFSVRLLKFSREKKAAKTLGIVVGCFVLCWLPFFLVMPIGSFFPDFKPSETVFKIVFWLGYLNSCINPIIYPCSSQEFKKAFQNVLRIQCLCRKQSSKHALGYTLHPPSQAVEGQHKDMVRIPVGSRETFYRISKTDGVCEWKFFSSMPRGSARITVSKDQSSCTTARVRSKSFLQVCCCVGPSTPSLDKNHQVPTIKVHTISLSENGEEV

[2] = target: T2, Muscarinic acetylcholine receptor M1 (Homo sapiens, UniProt P11229); format: functional
T2 sequence (P11229 whole entry): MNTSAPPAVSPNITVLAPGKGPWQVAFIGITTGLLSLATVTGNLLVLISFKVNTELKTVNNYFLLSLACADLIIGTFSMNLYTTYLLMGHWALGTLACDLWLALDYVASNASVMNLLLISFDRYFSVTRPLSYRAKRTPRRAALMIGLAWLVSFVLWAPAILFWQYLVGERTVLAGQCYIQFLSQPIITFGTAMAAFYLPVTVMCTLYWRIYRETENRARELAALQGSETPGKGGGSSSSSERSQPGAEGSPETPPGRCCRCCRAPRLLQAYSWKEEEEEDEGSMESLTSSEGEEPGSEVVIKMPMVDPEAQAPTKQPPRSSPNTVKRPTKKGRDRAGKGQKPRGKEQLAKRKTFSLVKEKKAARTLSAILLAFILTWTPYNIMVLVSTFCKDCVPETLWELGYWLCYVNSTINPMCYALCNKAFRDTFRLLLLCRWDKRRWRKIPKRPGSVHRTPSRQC

Histamine H1 receptor = Histamine H1 receptor (Homo sapiens, UniProt P35367)
Progesterone receptor [3] = target: T3, Progesterone receptor (Homo sapiens, UniProt P06401); format: functional
T3 sequence (P06401 whole entry): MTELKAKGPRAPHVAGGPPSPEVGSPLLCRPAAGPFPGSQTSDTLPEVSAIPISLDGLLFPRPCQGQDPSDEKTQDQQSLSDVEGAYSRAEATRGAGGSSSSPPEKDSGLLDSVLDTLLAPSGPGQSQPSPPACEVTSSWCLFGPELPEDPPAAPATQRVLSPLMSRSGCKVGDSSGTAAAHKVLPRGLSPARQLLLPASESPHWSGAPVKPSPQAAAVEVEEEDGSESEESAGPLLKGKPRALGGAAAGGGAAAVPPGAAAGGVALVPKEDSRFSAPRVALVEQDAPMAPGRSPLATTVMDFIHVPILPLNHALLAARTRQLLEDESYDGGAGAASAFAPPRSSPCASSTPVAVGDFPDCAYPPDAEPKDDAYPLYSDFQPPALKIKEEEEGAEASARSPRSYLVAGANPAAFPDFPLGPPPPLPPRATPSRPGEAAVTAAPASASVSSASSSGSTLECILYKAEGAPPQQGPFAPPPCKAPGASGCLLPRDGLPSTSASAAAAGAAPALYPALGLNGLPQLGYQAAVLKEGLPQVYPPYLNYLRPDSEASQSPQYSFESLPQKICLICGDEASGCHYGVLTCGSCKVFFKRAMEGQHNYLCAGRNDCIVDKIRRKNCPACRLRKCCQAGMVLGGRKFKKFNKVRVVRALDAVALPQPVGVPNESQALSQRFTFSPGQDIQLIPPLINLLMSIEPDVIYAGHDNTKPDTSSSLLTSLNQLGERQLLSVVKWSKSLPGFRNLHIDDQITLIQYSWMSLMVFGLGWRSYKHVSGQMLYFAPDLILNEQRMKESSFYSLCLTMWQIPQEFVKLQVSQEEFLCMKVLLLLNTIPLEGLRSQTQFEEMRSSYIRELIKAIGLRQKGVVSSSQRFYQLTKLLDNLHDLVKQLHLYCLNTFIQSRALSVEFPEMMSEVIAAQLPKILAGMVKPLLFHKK

Progesterone receptor [4] = target: T3, Progesterone receptor; format: functional; remark: listed apart in the source
[5] = target: T1, Alpha-1A adrenergic receptor; format: functional, cell-based; remark: listed apart in the source
[6] = target: T1, Alpha-1A adrenergic receptor; format: functional, cell-based; remark: listed apart in the source
[7] = target: Gamma-aminobutyric acid receptor subunit alpha-1 (Rattus norvegicus, UniProt P62813)
Histamine H3 receptor = Histamine H3 receptor (Homo sapiens, UniProt Q9Y5N1)
[8] = target: cGMP-inhibited 3',5'-cyclic phosphodiesterase 3A (Homo sapiens, UniProt Q14432); format: functional
[9] = target: Prostaglandin G/H synthase 1 (Homo sapiens, UniProt P23219); format: functional
Thromboxane A2 receptor [10] = target: T4, Thromboxane A2 receptor (Homo sapiens, UniProt P21731); format: functional, cell-based
T4 sequence (P21731 whole entry): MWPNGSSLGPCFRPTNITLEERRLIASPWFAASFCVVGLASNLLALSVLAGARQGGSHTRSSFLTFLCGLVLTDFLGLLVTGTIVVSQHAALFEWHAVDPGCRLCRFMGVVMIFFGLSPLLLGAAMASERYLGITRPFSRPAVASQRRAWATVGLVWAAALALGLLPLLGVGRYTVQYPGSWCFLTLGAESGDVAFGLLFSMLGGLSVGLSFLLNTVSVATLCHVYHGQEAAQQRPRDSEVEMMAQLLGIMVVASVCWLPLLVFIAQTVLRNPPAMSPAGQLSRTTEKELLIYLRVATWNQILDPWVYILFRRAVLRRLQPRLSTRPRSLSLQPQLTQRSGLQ

Thromboxane A2 receptor [11] = target: T4, Thromboxane A2 receptor
Histamine H2 receptor = Histamine H2 receptor (Homo sapiens, UniProt P25021); format: functional, cell-based
[12] = target: 5-hydroxytryptamine receptor 2B (Homo sapiens, UniProt P41595); format: functional, cell-based
Also: assay procedure not described here.

Chain of Histamine H2 receptor (P25021 whole entry): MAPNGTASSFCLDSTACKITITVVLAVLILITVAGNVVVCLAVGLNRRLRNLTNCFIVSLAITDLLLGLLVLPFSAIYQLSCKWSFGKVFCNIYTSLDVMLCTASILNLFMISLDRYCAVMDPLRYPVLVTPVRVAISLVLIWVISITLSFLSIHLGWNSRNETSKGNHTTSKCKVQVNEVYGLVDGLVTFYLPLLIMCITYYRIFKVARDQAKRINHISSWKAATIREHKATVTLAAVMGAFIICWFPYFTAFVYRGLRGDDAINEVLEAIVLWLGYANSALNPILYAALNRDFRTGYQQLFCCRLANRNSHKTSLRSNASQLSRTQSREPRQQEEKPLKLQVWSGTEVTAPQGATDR
Chain of cGMP-inhibited 3',5'-cyclic phosphodiesterase 3A (Q14432 whole entry): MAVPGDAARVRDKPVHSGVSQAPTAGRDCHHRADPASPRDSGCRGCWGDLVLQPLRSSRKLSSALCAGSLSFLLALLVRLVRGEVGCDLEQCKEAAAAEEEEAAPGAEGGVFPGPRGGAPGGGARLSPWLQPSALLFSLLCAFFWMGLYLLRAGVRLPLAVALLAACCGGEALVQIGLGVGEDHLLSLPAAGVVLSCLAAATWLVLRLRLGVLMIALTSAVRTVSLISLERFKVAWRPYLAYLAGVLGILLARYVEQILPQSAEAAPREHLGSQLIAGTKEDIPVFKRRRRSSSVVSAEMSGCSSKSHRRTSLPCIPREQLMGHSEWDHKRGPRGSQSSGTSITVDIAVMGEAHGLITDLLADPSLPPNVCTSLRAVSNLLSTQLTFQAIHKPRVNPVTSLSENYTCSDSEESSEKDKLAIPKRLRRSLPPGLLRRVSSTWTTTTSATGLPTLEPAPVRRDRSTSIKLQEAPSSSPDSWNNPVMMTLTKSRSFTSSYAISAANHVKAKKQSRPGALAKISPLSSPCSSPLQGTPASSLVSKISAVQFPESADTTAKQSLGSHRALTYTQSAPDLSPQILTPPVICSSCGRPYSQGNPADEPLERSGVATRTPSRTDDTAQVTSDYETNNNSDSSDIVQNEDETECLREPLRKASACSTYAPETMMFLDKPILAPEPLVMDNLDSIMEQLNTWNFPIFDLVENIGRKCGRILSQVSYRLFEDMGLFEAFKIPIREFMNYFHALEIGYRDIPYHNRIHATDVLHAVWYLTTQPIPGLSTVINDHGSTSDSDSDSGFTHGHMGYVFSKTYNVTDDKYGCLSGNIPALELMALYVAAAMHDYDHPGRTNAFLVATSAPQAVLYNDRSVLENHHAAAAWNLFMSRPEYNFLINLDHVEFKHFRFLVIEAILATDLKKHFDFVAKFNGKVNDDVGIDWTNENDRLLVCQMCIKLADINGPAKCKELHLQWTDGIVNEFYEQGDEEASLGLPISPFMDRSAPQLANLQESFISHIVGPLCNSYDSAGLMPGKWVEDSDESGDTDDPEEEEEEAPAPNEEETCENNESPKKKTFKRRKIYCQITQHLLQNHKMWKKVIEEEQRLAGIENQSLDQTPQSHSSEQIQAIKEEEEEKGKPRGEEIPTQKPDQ
Chain of Histamine H3 receptor (Q9Y5N1 whole entry): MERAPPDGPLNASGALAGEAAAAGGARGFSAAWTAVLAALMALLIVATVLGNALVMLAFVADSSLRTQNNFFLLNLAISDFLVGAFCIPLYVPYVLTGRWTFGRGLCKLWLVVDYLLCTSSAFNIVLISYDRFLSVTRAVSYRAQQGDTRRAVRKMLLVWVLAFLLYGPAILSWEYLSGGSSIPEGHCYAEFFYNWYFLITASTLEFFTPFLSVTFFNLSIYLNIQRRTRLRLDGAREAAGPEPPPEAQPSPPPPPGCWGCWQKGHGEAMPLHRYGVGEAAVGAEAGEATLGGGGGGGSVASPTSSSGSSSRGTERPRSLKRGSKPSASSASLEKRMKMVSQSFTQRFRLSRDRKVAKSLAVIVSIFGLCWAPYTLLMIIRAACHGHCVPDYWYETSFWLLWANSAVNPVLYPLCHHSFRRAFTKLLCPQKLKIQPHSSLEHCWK
Chain of 5-hydroxytryptamine receptor 2B (P41595 whole entry): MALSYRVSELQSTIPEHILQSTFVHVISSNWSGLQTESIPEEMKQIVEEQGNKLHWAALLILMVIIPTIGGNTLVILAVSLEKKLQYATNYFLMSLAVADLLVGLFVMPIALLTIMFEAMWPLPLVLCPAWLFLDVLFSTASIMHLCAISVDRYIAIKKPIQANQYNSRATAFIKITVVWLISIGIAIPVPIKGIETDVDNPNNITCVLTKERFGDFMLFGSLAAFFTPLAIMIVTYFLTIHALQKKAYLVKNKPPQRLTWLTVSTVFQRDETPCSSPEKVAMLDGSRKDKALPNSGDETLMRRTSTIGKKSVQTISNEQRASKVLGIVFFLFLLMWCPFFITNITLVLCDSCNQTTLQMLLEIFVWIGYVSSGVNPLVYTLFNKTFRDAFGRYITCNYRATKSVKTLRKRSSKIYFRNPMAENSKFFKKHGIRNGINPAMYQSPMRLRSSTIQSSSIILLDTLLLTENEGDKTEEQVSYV
Chain of Gamma-aminobutyric acid receptor subunit alpha-1 (P62813 whole entry): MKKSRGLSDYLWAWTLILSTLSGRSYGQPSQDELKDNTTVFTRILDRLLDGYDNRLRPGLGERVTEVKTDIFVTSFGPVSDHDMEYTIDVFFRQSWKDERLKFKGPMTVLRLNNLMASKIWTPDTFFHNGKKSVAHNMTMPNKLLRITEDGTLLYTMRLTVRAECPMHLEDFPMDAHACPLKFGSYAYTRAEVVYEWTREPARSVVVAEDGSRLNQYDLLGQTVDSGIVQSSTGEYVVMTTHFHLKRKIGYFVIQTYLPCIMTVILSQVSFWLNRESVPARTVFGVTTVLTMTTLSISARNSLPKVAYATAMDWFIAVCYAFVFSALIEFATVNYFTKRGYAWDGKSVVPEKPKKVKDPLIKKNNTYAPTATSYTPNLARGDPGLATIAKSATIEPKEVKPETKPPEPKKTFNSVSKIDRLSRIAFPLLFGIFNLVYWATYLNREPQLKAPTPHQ
Chain of Prostaglandin G/H synthase 1 (P23219 whole entry): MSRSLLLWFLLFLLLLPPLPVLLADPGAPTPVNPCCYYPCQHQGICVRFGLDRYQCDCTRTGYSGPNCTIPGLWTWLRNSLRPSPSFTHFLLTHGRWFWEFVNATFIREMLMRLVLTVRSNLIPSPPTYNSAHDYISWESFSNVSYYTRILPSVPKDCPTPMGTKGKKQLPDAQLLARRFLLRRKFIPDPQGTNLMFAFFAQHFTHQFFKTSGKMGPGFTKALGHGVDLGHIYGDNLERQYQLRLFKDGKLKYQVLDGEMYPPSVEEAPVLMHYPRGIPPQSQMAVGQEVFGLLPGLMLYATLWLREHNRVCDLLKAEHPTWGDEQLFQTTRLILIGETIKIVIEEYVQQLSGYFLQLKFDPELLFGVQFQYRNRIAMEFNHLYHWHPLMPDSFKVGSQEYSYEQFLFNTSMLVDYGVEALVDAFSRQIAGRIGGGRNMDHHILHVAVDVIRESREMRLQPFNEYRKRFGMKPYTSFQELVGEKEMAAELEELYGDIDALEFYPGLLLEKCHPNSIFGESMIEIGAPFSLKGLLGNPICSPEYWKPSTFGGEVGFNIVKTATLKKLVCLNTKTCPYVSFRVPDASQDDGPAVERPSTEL
Chain of Histamine H1 receptor (P35367 whole entry): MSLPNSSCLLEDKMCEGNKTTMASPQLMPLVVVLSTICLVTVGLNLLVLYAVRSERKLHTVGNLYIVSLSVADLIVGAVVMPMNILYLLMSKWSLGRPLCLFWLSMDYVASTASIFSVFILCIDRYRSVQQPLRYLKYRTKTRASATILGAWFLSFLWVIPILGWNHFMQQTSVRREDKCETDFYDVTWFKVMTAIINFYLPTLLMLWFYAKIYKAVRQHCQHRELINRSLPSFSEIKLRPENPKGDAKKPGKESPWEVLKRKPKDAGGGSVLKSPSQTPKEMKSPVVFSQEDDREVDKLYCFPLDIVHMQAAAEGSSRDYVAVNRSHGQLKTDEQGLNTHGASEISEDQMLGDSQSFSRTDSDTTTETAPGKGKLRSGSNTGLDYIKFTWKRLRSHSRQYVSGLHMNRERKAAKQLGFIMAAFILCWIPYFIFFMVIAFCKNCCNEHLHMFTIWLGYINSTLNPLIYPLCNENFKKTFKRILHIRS

| Compound | AC50 [1] | AC50 [2] | AC50 (Histamine H1 receptor) | AC50 (Progesterone receptor [3]) | AC50 (Progesterone receptor [4]) | AC50 [5] | AC50 [6] | AC50 [7] | AC50 (Histamine H3 receptor) | AC50 [8] | AC50 [9] | AC50 (Thromboxane A2 receptor [10]) | AC50 (Thromboxane A2 receptor [11]) | AC50 (Histamine H2 receptor) | AC50 [12] |
| --- | --- | --- | --- | --- | --- | --- | --- | --- | --- | --- | --- | --- | --- | --- | --- |
| CCOCC(O)COc1ccc(NC(=O)CC[S+](C)C)cc1 (configuration not stated) | > 30 µM | > 30 µM | > 30 µM | > 30 µM | > 30 µM | > 30 µM |  |  |  |  |  |  |  |  |  |
| CN(C)CCC=C1c2ccccc2CCc2ccccc21 [AMITRIPTYLINE] | > 30 µM |  |  | > 30 µM | > 30 µM | 0.12 µM | > 30 µM | > 10 µM | > 30 µM | > 30 µM | > 30 µM | 26.3 µM | > 30 µM |  |  |
| O=C(O)[C@H]1/C(=C/CO)O[C@@H]2CC(=O)N21 [CLAVULANIC ACID] | > 30 µM | > 30 µM | > 30 µM | > 30 µM | > 30 µM | > 30 µM |  |  |  |  |  |  |  |  |  |
| O=C(c1ccccc1)c1ccc2n1CCC2C(=O)O (configuration not stated) [KETOROLAC] | > 30 µM |  |  | > 10 µM | > 10 µM | > 30 µM |  | > 30 µM |  |  |  |  | > 10 µM | > 30 µM |  |
| NCC1(CC(=O)O)CCCCC1 [GABAPENTIN] | > 30 µM |  |  | > 30 µM | > 30 µM | > 30 µM | > 30 µM | > 10 µM | > 30 µM | > 30 µM | > 30 µM | > 30 µM | > 30 µM | > 10 µM | > 30 µM |
| CC(C)C[C@H](NC(=O)[C@H](Cc1ccccc1)NC(=O)c1cnccn1)B(O)O [BORTEZOMIB] |  | > 30 µM | > 30 µM | > 30 µM | > 30 µM |  |  | > 30 µM |  |  |  |  | > 30 µM | > 30 µM |  |
| Nc1c2c(nc3ccccc13)CCCC2O (configuration not stated) [VELNACRINE] | > 30 µM | > 30 µM | > 30 µM | > 30 µM | > 30 µM | > 30 µM |  |  |  |  |  |  |  |  |  |
| CC[N+](CC)(CCNC(=O)C(=O)NCC[N+](CC)(CC)Cc1ccccc1Cl)Cc1ccccc1Cl [AMBENONIUM] |  | 1.6 µM | > 30 µM | > 30 µM | > 30 µM |  |  | > 30 µM |  |  |  |  | > 30 µM | > 30 µM |  |
| CO[C@@H]1[C@@H](OC(N)=O)[C@@H](O)[C@H](Oc2ccc3c(O)c(NC(=O)c4ccc(O)c(CC=C(C)C)c4)c(=O)oc3c2C)OC1(C)C [NOVOBIOCIN] | > 30 µM | > 30 µM | > 30 µM | > 30 µM | > 30 µM | > 30 µM |  |  |  |  |  |  |  |  |  |
| COc1cc2c(cc1OC)C1CC(=O)C(CC(C)C)CN1CC2 (configuration not stated) [TETRABENAZINE] | > 30 µM | > 30 µM | > 30 µM | > 30 µM | > 30 µM | > 30 µM |  |  |  |  |  |  |  |  |  |
| CCC[C@@]1(CCc2ccccc2)CC(O)=C([C@H](CC)c2cccc(NS(=O)(=O)c3ccc(C(F)(F)F)cn3)c2)C(=O)O1 | > 30 µM | > 30 µM | > 30 µM | > 30 µM | 13 µM | 4.7 µM |  |  |  |  |  |  |  |  |  |
| CC(=O)SCC(Cc1ccccc1)C(=O)NCC(=O)OCc1ccccc1 (configuration not stated) [RACECADOTRIL] |  | > 30 µM | > 30 µM | > 30 µM | > 30 µM |  |  | > 30 µM |  |  |  |  | > 30 µM | > 30 µM |  |
| CN(C)CCc1c[nH]c2ccc(CS(=O)(=O)N3CCCC3)cc12 [ALMOTRIPTAN] | > 30 µM | > 30 µM | > 30 µM | > 30 µM | > 30 µM |  |  | > 30 µM |  |  |  |  |  | > 30 µM |  |
| CC(C)(CO)c1cc2cc(NC(=O)C3(c4ccc5c(c4)OC(F)(F)O5)CC3)c(F)cc2n1C[C@@H](O)CO [TEZACAFTOR] | > 30 µM | > 30 µM | > 30 µM | > 30 µM | > 30 µM | > 10 µM |  |  |  |  |  |  |  |  |  |
| CNC1(C)C2CCC(C2)C1(C)C (configuration not stated) [MECAMYLAMINE] |  | > 10 µM | > 10 µM | > 10 µM | > 10 µM |  |  |  |  |  |  |  | > 10 µM | > 10 µM |  |
| CS(=O)(=O)Nc1ccc([N+](=O)[O-])cc1Oc1ccccc1 [NIMESULIDE] | > 30 µM |  |  | > 30 µM | > 30 µM | > 30 µM | > 30 µM | > 30 µM | > 30 µM | > 30 µM |  | > 30 µM | 27 µM | > 30 µM | > 30 µM |
| Cc1c(C)c2c(c(C)c1O)CCC(C)(COc1ccc(CC3SC(=O)NC3=O)cc1)O2 (configuration not stated) [TROGLITAZONE] | > 30 µM |  |  | > 30 µM | 16 µM | > 30 µM | > 30 µM | > 30 µM | > 30 µM | 11 µM | 5.93 µM |  | > 30 µM | > 30 µM | > 30 µM |
| O=C1[C@@H]2[C@H]3CC[C@H](C3)[C@@H]2C(=O)N1C[C@@H]1CCCC[C@H]1CN1CCN(c2nsc3ccccc23)CC1 [LURASIDONE] |  |  | 8.7 µM | > 30 µM | > 30 µM |  |  |  | > 30 µM | > 30 µM | > 30 µM | > 30 µM |  |  | > 30 µM |
| COC(=O)CCc1ccc(OCC(O)CNC(C)C)cc1 (configuration not stated) [ESMOLOL] | > 30 µM |  |  | > 30 µM | > 30 µM | > 30 µM |  | > 30 µM |  |  |  |  | > 30 µM | > 30 µM |  |
| CN1CC2c3ccccc3Oc3ccc(Cl)cc3C2C1 (configuration not stated) [ASENAPINE] | > 30 µM | > 30 µM |  | > 30 µM | > 30 µM | 0.0014 µM |  |  |  |  |  |  |  |  |  |
| CC(C)NCC(O)COc1ccc(CC(N)=O)cc1 (configuration not stated) [ATENOLOL] | > 30 µM |  |  | > 30 µM | > 30 µM | > 30 µM |  |  |  |  |  |  | > 30 µM | > 30 µM |  |
